Measured values from patent US20120219615A1, “Therapeutic Use of a TLR Agonist and Combination Therapy” (The Trustees of the University of Pennsylvania, priority 2010, published 2012).

Columns and labels:
Type in all cases: cell-based
[1] = target: T1, TLR8 (Homo sapiens, UniProt Q9NR97); assay: TNFα production in PBMCs (marker of TLR8 activation)
T1 construct: assessed in peripheral blood mononuclear cells (PBMCs) from 15 healthy donors; endogenous in cells; host or cells: PBMCs from 15 healthy donors
T1 sequence (Q9NR97 27-1041): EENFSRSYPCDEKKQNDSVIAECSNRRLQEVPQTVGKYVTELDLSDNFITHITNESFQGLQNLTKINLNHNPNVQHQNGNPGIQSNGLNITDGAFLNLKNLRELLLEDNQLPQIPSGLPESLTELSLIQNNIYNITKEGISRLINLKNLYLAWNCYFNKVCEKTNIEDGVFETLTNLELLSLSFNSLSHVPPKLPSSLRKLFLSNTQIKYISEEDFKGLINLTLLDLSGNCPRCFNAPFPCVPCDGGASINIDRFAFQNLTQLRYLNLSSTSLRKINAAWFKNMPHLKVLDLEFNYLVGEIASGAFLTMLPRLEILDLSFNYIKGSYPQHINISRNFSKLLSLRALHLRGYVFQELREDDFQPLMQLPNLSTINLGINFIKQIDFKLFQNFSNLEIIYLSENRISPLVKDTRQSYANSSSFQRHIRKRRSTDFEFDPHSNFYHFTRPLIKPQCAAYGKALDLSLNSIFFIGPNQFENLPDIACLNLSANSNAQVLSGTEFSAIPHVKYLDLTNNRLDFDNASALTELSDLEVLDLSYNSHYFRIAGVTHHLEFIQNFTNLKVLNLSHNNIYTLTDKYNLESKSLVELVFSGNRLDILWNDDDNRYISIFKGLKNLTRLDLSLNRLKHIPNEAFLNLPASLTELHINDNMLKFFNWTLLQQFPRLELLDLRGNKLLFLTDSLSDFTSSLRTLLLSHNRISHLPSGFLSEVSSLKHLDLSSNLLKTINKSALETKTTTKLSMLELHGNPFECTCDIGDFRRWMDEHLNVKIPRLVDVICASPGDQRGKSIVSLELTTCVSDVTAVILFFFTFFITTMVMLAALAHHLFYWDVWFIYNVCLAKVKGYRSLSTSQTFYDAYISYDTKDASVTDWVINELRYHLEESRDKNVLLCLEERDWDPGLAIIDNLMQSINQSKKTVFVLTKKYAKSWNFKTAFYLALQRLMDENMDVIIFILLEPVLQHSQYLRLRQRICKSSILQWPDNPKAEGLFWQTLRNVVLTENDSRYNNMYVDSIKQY
Method: (§1) The half-maximal effective concentration (EC50) for VTX-2337 activation of TLR8 and TLR7 was assessed in peripheral blood mononuclear cells (PBMCs) from 15 healthy donors and also in HEK293 cells transfected with TLR8 or TLR7 and an NF-κB driven reporter gene. […] Also it was observed that VTX-2337 had no activity on TLR2, TLR3, TLR4, TLR5, TLR6, or TLR9 at concentrations up to 25 μM.

[2] = target: T2, TLR3 (Homo sapiens, UniProt O15455); assay: Activity on TLR3; conditions: concentrations up to 25 μM
T2 sequence (O15455 24-904): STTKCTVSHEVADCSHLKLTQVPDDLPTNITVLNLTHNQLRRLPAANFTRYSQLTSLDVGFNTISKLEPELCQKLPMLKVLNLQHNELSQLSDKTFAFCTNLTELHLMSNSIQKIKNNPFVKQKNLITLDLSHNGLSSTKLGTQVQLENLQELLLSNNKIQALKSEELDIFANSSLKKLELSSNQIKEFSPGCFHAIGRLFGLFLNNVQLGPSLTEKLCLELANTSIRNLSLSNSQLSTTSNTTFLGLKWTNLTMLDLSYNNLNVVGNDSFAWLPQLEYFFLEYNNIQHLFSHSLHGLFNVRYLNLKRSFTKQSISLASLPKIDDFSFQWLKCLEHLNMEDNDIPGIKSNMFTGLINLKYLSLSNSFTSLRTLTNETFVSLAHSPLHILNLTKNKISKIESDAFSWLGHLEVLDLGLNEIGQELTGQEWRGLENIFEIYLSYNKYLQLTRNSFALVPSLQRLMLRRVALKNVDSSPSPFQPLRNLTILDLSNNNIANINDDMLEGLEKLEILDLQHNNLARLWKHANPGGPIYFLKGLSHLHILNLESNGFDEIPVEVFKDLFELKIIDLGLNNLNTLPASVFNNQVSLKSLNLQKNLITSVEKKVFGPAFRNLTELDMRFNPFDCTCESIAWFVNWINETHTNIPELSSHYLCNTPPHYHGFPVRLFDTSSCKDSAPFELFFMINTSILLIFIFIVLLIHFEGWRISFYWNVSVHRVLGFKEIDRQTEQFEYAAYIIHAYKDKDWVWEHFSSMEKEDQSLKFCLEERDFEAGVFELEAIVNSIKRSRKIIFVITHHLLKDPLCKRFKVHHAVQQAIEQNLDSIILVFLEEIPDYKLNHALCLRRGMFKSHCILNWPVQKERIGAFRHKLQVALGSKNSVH
Method: as §1

[3] = target: TLR5 (Homo sapiens, UniProt O60602); assay: Activity on TLR5; conditions: concentrations up to 25 μM
TLR5, sequence (O60602 21-858, species assumed): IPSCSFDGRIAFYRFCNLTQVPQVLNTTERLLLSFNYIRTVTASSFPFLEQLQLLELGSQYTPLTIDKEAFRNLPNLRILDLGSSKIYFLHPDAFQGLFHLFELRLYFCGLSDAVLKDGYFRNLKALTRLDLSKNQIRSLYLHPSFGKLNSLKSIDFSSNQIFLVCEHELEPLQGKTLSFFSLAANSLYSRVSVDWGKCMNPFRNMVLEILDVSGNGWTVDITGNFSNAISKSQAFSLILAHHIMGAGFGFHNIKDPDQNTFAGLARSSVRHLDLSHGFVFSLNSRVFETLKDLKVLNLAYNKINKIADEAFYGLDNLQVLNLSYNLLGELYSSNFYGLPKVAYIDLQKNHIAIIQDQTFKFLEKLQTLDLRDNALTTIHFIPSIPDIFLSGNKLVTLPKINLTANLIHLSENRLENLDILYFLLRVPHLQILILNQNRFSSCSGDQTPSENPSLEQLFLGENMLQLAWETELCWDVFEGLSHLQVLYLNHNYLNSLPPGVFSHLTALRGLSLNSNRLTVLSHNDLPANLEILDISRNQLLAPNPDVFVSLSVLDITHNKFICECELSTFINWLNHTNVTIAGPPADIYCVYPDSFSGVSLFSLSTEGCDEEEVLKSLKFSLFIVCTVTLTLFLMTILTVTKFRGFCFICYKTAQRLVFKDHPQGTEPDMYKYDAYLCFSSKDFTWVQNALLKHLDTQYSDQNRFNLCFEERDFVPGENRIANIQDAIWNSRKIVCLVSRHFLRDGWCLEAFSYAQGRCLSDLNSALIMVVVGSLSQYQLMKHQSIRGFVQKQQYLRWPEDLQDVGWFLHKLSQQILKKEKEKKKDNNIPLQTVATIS
Method: as §1

[4] = target: TLR6 (Homo sapiens, UniProt O60603+Q9Y2C9); assay: Activity on TLR6; conditions: concentrations up to 25 μM
TLR6, sequence (Q9Y2C9 32-796, species assumed): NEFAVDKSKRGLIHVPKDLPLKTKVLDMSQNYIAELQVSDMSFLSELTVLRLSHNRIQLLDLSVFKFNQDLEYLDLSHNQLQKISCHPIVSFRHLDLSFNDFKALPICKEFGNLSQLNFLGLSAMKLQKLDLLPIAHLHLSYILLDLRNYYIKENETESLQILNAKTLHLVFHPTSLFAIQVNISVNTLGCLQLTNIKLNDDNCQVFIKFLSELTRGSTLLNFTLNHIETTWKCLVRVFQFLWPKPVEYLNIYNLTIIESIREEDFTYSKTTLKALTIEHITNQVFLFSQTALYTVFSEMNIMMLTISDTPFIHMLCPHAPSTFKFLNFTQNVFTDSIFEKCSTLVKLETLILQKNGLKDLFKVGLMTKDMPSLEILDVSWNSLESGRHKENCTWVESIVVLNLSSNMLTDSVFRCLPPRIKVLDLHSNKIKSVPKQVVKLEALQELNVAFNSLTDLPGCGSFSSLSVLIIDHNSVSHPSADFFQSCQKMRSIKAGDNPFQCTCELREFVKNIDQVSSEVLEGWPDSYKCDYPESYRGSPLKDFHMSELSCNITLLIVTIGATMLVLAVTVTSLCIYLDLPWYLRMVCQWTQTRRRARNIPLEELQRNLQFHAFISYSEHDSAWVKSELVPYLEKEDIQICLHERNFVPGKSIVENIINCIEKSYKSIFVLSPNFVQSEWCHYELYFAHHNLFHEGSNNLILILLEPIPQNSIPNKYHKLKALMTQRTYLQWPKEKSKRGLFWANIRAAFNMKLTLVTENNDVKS
TLR6, sequence (O60603 21-784, species assumed): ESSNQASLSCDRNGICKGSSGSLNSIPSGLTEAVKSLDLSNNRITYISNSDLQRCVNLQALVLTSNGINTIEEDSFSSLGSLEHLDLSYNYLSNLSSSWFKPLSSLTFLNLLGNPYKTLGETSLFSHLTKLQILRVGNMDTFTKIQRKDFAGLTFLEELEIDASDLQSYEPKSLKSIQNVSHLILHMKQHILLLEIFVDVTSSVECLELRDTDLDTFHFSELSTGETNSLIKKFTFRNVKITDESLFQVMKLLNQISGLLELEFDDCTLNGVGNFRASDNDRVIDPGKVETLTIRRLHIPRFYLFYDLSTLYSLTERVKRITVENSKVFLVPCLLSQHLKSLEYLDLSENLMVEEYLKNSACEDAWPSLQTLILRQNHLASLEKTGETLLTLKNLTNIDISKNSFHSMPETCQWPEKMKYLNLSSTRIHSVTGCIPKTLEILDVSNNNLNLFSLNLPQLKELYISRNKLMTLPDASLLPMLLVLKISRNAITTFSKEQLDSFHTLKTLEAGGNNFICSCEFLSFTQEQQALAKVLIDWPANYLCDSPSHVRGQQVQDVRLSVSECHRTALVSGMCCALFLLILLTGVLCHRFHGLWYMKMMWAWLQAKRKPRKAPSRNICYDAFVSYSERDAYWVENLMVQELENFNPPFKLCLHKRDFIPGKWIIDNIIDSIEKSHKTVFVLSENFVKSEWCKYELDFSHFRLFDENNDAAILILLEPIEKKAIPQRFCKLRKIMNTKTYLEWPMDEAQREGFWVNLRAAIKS
Method: as §1

CCCN(CCC)C(=O)C1=Cc2ccc(-c3ccc(C(=O)N4CCCC4)cc3)cc2N=C(N)C1 [VTX-2337, 2-amino-N,N-dipropyl-8-(4-(pyrrolidine-1-carbonyl)phenyl)-3H-benzo[b]azepine-4-carboxamide]
EC50 ([1]; PBMCs from 15 healthy donors): 0.074 µM | selectivity for TLR8 relative to TLR7 ([1]; PBMCs, TNFα vs IFNα EC50): > 45 fold | activity on TLR3 [2]: no activity | activity on TLR5 [3]: no activity | activity on TLR6 [4]: no activity
